Counter-ions that a name gives are not always drawn.

The target in the assay is T1, PTP-1B (Homo sapiens, UniProt P18031).
T1 construct: PTP-1B (purified, 1 mg/mL) as a 1:250 dilution
T1 sequence (P18031 1-321 limits assumed): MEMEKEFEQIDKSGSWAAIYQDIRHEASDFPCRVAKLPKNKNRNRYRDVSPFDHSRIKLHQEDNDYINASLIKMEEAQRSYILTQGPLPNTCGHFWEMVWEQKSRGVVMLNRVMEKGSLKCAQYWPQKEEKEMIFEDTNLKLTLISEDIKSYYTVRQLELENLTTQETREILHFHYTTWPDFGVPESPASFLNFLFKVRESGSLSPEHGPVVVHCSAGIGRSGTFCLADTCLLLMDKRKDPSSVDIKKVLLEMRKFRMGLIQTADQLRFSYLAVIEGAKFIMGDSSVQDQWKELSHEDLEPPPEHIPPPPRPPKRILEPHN
Put plainly: pNPP tyrosine phosphatase inhibition assay, PTP-1B. The assay is classed as biochemical. As to conditions: pNPP assay, PTP-1B; read-out: Activity Class (IC50 ranges). Put shortly:
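Test compounds were screened at two final levels, 31.3 and 10 µM, against 4 µg/mL purified PTP-1B. The substrate was 10 mM p-nitrophenyl phosphate, with incubation for 10 min at 30°C before a K2CO3 quench. Activity was taken from A405.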
As for `COc1ccccc1S(=O)(=O)N(Cc1ccc(N(C)C(=O)C(=O)O)cc1)Cc1ccc(N(C)C(=O)C(=O)O)cc1` [Compound 141, N-[4-({(2-Methoxy-benzenesulfonyl)-[4-(methyl-oxalyl-amino)-benzyl]-amino}-methyl)-phenyl]-N-methyl-oxalamic acid], the IC50 (usually the concentration that inhibits the measured activity by half) was more than 25000 nM. For `CCOc1cccc(-c2ccccc2CN(Cc2ccc(C(F)(F)P(=O)(O)O)c(Cl)c2)S(=O)(=O)c2ccccc2OC)c1` [Compound 217, [(2-Chloro-4-{[(3′-ethoxy-biphenyl-2-ylmethyl)-(2-methoxy-benzenesulfonyl)-amino]-methyl}-phenyl)-difluoro-methyl]-phosphonic acid] the value was less than 99 nM; for “{[4-(difluorophosphonomethyl)-3-chlorophenyl]methyl}[(2-ethoxyphenyl)methyl][(2-methoxyphenyl)sulfonyl]amine [Compound 212]”, 250 to 499 nM; for `COc1ccccc1S(=O)(=O)N(Cc1ccc(C#N)cc1)Cc1ccc(CC(C(=O)O)C(=O)O)cc1` [Compound 140, 2-(4-{[(4-Cyano-benzyl)-(2-methoxy-benzenesulfonyl)-amino]-methyl}-benzyl)-malonic acid], more than 25000 nM. Turning to `CCNc1ccc(S(=O)(=O)C(F)(F)F)cc1NC(=O)C1CCN(S(=O)(=O)c2cccs2)CC1` [Compound 88, 1-(Thiophene-2-sulfonyl)-piperidine-4-carboxylic acid (2-ethylamino-5-trifluoromethanesulfonyl-phenyl)-amide], the IC50 is more than 25000 nM.

For the compound `O=P(O)(O)C(F)(F)c1ccc(CN(c2ccc(Cl)c(Cl)c2)S(=O)(=O)c2ccccc2)cc1Br` [Compound 34, [(4-{[Benzenesulfonyl-(3,4-dichloro-phenyl)-amino]-methyl}-2-bromo-phenyl)-difluoro-methyl]-phosphonic acid], the IC50 is 250 to 499 nM.

As to `COc1ccccc1S(=O)(=O)N(Cc1ccc(OCc2nnn[nH]2)cc1)Cc1ccc(OCc2nnn[nH]2)cc1` [Compound 138, 2-Methoxy-N,N-bis-[4-(1H-tetrazol-5-ylmethoxy)-benzyl]-benzenesulfonamide], the IC50 is more than 25000 nM. `COc1ccccc1S(=O)(=O)N(Cc1ccc(C#N)cc1)Cc1ccc(N(S(=O)(=O)C(F)(F)F)S(=O)(=O)C(F)(F)F)cc1` [Compound 112, N-(4-[bis(N-trifluoro-methanesulfonyl)amino]benzyl)-N-(4-cyanobenzyl)-(2-methoxy)benzenesulfonamide]: the IC50 is more than 25000 nM. With `O=P(O)(O)C(F)(F)c1ccc(CN(Cc2ccc(Cl)c(Cl)c2)S(=O)(=O)c2ccc(Oc3ccccc3)cc2)cc1Br` [Compound 109, [(2-Bromo-4-{[(3,4-dichloro-benzyl)-(4-phenoxy-benzenesulfonyl)-amino]-methyl}-phenyl)-difluoro-methyl]-phosphonic acid], the IC50 lay within 250 to 499 nM. For `N#Cc1cccc(-c2ccc(CN(Cc3ccc(C(F)(F)P(=O)(O)O)c(Cl)c3)S(=O)(=O)c3ccc(F)cc3Cl)cc2)c1` [Compound 162, [(2-Chloro-4-{[(2-chloro-4-fluoro-benzenesulfonyl)-(3′-cyano-biphenyl-4-ylmethyl)-amino]-methyl}-phenyl)-difluoro-methyl]-phosphonic acid] the value was 100 to 249 nM. The result for `N#Cc1cccc(-c2ccc(CN(Cc3ccc(C(F)(F)P(=O)(O)O)c(Cl)c3)S(=O)(=O)c3ccc4ccccc4c3)cc2)c1` [Compound 154, [(2-Chloro-4-{[(3′-cyano-biphenyl-4-ylmethyl)-(naphthalene-2-sulfonyl)-amino]-methyl}-phenyl)-difluoro-methyl]-phosphonic acid] reads 250 to 499 nM.

For `O=P(O)(O)C(F)(F)c1ccc(CN(Cc2ccc(C(F)(F)P(=O)(O)O)cc2)S(=O)(=O)c2cccc(Cl)c2Cl)cc1` [Compound 91, {[4-({(2,3-Dichloro-benzenesulfonyl)-[4-(difluoro-phosphono-methyl)-benzyl]-amino}-methyl)-phenyl]-difluoro-methyl}-phosphonic acid], the IC50 lay within 2500 to 25000 nM. The result for `COc1ccccc1S(=O)(=O)N(Cc1ccc(-c2ccc(CO)c(C(=O)O)c2)cc1)Cc1ccc(C(F)(F)P(=O)(O)O)c(Cl)c1` [Compound 200, 5-{4-[({[4-(difluorophosphonomethyl)-3-chlorophenyl]methyl}[(2-methoxyphenyl)sulfonyl]amino)methyl]phenyl}-2-(hydroxymethyl)benzoic acid,trisodium salt] reads 100 to 249 nM; that for `COc1ccccc1S(=O)(=O)N(Cc1ccc(C#N)cc1)Cc1ccc(C=CC(=O)O)c(Br)c1` [Compound 120, 3-{2-Bromo-4-[N-(4-cyanobenzyl)-N-(2-methoxy-benzenesulfonyl)aminomethyl]-phenyl}-acrylic acid], more than 25000 nM; that for `O=C(O)c1ccc(CN(Cc2ccc(C(=O)O)c(Br)c2)S(=O)(=O)c2ccccc2)cc1` [Compound 79, 2-bromo-4-([Benzenesulfonyl-(4-carboxybenzyl)-amino]-methyl)-benzoic acid], more than 25000 nM. Take `O=P(O)(O)C(F)(F)c1ccc(CN(Cc2ccc(-c3cccc(-c4nn[nH]n4)c3)cc2)S(=O)(=O)c2ccc3ccccc3c2)cc1Cl` [Compound 158, {[2-Chloro-4-({(naphthalene-2-sulfonyl)-[3′-(2H-tetrazol-5-yl)-biphenyl-4-ylmethyl]-amino}-methyl)-phenyl]-difluoro-methyl}-phosphonic acid]: the IC50 is less than 99 nM.

Regarding `O=P(O)(O)C(F)(F)c1ccc(CN(Cc2ccc(Cl)c(Cl)c2)S(=O)(=O)c2ccccc2OC(F)(F)F)cc1Br` [Compound 98, [(2-Bromo-4-{[(3,4-dichloro-benzyl)-(2-trifluoromethoxy-benzenesulfonyl)-amino]-methyl}-phenyl)-difluoro-methyl]-phosphonic acid], the IC50 lay within 250 to 499 nM.

For the compound `COc1ccccc1S(=O)(=O)N(Cc1ccc(Cl)c(Cl)c1)Cc1ccc(NC(=O)C(=O)O)c(C(=O)O)c1` [Compound 56, 5-{[(3,4-Dichloro-benzyl)-(2-methoxy-benzenesulfonyl)-amino]-methyl}-2-(oxalyl-amino)-benzoic acid], the IC50 is more than 25000 nM.

`O=P(O)(O)C(F)(F)c1ccc(CN(Cc2ccccc2)Cc2ccc(C(F)(F)P(=O)(O)O)cc2)cc1` [Compound 65, {[4-({Benzyl-[4-(difluoro-phosphono-methyl)-benzyl]-amino}-methyl)-phenyl]-difluoro-methyl}-phosphonic acid]: the 50% inhibitory concentration (IC50) was more than 25000 nM. For `COc1ccccc1S(=O)(=O)N(Cc1ccc(-c2nn[nH]n2)cc1)Cc1ccc(-c2nn[nH]n2)cc1` [Compound 110, 2-Methoxy-N,N-bis-[4-(2H-tetrazol-5-yl)-benzyl]-benzenesulfonamide] the value was more than 25000 nM; for `O=P(O)(O)C(F)(F)c1ccc(CN(Cc2ccc(C(F)(F)P(=O)(O)O)cc2)S(=O)(=O)Cc2ccccc2)cc1` [Compound 69, {[4-({[4-(Difluoro-phosphono-methyl)-benzyl]-phenylmethanesulfonyl-amino}-methyl)-phenyl]-difluoro-methy}-phosphonic acid], 2500 to 25000 nM; for `CS(=O)(=O)c1ccc(CN(Cc2ccc(C(F)(F)P(=O)(O)O)c(Br)c2)S(=O)(=O)c2ccccc2Cl)cc1` [Compound 102, [(2-Bromo-4-{[(2-chloro-benzenesulfonyl)-(4-methanesulfonyl-benzyl)-amino]-methyl}-phenyl)-difluoro-methyl]-phosphonic acid], 100 to 249 nM.

Consider `N#Cc1cccc(-c2ccc(CN(Cc3ccc(C(F)(F)P(=O)(O)O)c(Cl)c3)S(=O)(=O)c3ccccc3Cl)cc2)c1` [Compound 163, [(2-Chloro-4-{[(2-chloro-benzenesulfonyl)-(3′-cyano-biphenyl-4-ylmethyl)-amino]-methyl}-phenyl)-difluoro-methyl]-phosphonic acid], for which the IC50 is 100 to 249 nM. The result for “[(2-Chloro-4-{[(4′-cyano-biphenyl-4-ylmethyl)-(2-methoxy-benzenesulfonyl)-amino]-methyl}-phenyl)-difluoro-methyl]-phosphonic acid [Compound 157]” reads 100 to 249 nM; that for `COc1ccccc1S(=O)(=O)N(Cc1ccc(-c2ccc(S(C)(=O)=O)cc2)c(C)c1)Cc1ccc(C(F)(F)P(=O)(O)O)c(Cl)c1` [Compound 151, [(2-Chloro-4-{[(4′-methanesulfonyl-2-methyl-biphenyl-4-ylmethyl)-(2-methoxy-benzenesulfonyl)-amino]-methyl}-phenyl)-difluoro-methyl]-phosphonic acid], 250 to 499 nM. For `O=C(O)c1ccc(CN(Cc2ccc(Cl)c(Cl)c2)S(=O)(=O)c2ccccc2Cl)cc1Br` [Compound 94, 2-Bromo-4-{[(2-chloro-benzenesulfonyl)-(3,4-dichloro-benzyl)-amino]-methyl}-benzoic acid] the value was more than 25000 nM. The result for `O=P(O)(O)C(F)(F)c1ccc(CN(Cc2ccc(C(F)(F)P(=O)(O)O)cc2)S(=O)(=O)c2ccc(Cl)cc2)cc1` [Compound 73, {[4-({(4-Chloro-benzenesulfonyl)-[4-(difluoro-phosphono-methyl)-benzyl]-amino}-methyl)-phenyl]-difluoro-methyl}-phosphonic acid] reads 250 to 499 nM.

“5-{4-[({[4-(difluorophosphonomethyl)phenyl]methyl}[(2-methoxyphenyl)sulfonyl]amino)methyl]phenyl}-2-hydroxybenzoic acid [Compound 210]”: the IC50 was in the range of 250 to 499 nM. The result for “4-{2-[({[4-(difluorophosphonomethyl)-3-chlorophenyl]methyl}[(2-methoxyphenyl)sulfonyl]amino)methyl]phenyl}benzamide [Compound 199]” reads less than 99 nM.

The record behind these values is patent US20060135773A1, “Trisubstituted nitrogen modulators of tyrosine phosphatases” (priority 2004, published 2006).
